In patent US20090280160A1, “PHENYLEPHRINE PHARMACEUTICAL FORMULATIONS AND COMPOSITIONS FOR TRANSMUCOSAL ABSORPTION” (Schering-Plough Healthcare Products, Inc., priority 2007, published 2009):
“Also recorded” adds a separate entry of the source.

Key:
[1] = in vivo; cited from earlier work
[2] = molecular target: T1, α1a adrenoreceptor (Homo sapiens, UniProt P35348); assay: Competition binding, [3H]-prazosin, α1a CHO cell membranes; conditions: for inhibition of 3H-prazosin binding, α1a (in words): CHO cell membranes
T1 construct: expressed in transfected cells
T1 sequence (P35348 1-466): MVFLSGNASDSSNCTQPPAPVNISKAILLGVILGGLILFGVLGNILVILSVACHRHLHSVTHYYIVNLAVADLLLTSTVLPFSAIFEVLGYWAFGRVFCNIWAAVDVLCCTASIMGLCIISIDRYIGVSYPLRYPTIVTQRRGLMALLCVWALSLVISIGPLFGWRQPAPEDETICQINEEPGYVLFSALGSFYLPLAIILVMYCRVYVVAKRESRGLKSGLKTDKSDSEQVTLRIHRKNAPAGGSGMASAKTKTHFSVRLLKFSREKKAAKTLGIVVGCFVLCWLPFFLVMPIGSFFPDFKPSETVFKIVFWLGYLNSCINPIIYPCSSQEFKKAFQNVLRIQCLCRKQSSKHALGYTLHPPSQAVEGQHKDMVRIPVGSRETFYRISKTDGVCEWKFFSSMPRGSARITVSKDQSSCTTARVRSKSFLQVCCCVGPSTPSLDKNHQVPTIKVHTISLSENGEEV

[3] = molecular target: T2, α2b adrenoreceptor (Homo sapiens, UniProt P18089); assay: [35S]-GTPγS binding exchange, α2b CHO cell membranes; format: biochemical; conditions: for stimulation of [35S]-GTPγS binding, α2b (in words): CHO cell membranes
T2 construct: expressed in transfected cells; host or cells: CHO (Chinese hamster ovary) cells, membranes
T2 sequence (P18089 1-450): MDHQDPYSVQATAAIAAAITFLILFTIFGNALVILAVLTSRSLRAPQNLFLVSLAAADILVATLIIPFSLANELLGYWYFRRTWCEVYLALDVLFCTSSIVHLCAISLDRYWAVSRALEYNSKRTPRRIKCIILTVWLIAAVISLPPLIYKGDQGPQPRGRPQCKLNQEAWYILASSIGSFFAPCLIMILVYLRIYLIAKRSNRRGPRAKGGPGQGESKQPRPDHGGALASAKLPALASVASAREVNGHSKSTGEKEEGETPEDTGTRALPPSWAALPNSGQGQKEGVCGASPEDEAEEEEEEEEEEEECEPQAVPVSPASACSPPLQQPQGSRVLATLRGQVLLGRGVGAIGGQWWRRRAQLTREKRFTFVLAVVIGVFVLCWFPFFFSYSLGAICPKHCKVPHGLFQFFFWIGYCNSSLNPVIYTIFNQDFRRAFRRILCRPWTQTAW
Procedure: (§1) The affinity and activity of phenylephrine metabolites were evaluated in human recombinant α1 and α2 adrenoreceptor binding and activity assays. […] Affinity of the metabolites was determined by receptor binding assays. Functional activity of the metabolites was assessed using an [^35S]-GTPγS binding exchange assay for the α2 receptor subtypes and a cell-based calcium flux response for the α1 receptor subtypes.
(§2) Assay buffer was 75 mM Tris-HCl pH 7.4, 12.5 mM MgCl2, 2 mM EDTA and 1 μM GDP. Plates were counted on a Packard TopCount. The percent increase over basal binding of [^35S]-GTPγS, a measure of efficacy, was calculated as follows: 100×[[mean total sample cpm−basal cpm]÷by basal cpm]. Basal cpm was defined as the mean cpm in the absence of agonist compound minus the mean non-specific binding cpm.
(§3) Each metabolite was evaluated in each assay in at least 2 independent experiments and a representative assay of each metabolite/assay combination is shown.

[4] = molecular target: T3, α1b adrenoreceptor (Homo sapiens, UniProt P35368); assay: Cellular calcium flux (FLIPR), α1b expressing CHO cells; format: cell-based; conditions: α1b expressing CHO cells
T3 construct: expressed in transfected cells
T3 sequence (P35368 1-520): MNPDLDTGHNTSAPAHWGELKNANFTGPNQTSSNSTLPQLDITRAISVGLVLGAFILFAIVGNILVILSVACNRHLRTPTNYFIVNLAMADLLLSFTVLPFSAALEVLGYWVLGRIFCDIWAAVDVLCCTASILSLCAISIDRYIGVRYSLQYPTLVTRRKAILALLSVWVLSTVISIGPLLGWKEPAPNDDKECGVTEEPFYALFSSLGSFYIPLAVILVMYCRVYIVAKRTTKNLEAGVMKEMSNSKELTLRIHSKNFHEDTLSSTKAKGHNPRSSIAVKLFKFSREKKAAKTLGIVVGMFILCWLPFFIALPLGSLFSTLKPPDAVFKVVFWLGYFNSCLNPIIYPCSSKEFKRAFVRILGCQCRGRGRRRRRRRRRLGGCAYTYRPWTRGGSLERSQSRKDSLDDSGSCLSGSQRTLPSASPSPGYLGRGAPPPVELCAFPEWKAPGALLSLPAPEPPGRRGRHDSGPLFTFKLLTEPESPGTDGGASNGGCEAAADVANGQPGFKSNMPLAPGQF
Procedure: as §1
(§4) Intracellular calcium levels were measured using a fluorometric imaging plate reader (FLIPR). Cells expressing α1 adrenoreceptors were cultured overnight at 15,000 cells/well in 96 well black-wall clear bottom plates (Packard). Adherent cells were loaded for 1 hour at 37° C. using the FLIPR Calcium Plus Assay Kit (Molecular Probes, Eugene, Oreg.), which included 2.5 mM probenecid (Sigma). Compounds (at 10 mM in 100% DMSO) were diluted in diluting buffer (HBSS, 20 mM HEPES, 2.5 mM probenecid, 0.5% BSA, pH 7.4). A titration of norepinephrine was included in every experiment and norepinephrine (at 1 μM) was also used as a plate standard on each assay plate. Cells were maintained at 37° C. throughout all calcium measurements. Fluorescence data was collected at 1 second interval for 60 seconds, followed by collection at 2 second intervals for 30 seconds. Background fluorescence was quantitated in wells containing cells with no additions and was subtracted from all experimental samples. All conditions were done in quadruplicate. Non-linear regression analysis using GraphPad Prism was used to calculate EC50 values.
as §3

[5] = molecular target: T4, α2c adrenoreceptor (Homo sapiens, UniProt P18825); assay: [35S]-GTPγS binding exchange, α2c CHO cell membranes; format: biochemical; conditions: for stimulation of [35S]-GTPγS binding, α2c (in words): CHO cell membranes
T4 construct: expressed in transfected cells; host or cells: CHO (Chinese hamster ovary) cells, membranes
T4 sequence (P18825 1-462): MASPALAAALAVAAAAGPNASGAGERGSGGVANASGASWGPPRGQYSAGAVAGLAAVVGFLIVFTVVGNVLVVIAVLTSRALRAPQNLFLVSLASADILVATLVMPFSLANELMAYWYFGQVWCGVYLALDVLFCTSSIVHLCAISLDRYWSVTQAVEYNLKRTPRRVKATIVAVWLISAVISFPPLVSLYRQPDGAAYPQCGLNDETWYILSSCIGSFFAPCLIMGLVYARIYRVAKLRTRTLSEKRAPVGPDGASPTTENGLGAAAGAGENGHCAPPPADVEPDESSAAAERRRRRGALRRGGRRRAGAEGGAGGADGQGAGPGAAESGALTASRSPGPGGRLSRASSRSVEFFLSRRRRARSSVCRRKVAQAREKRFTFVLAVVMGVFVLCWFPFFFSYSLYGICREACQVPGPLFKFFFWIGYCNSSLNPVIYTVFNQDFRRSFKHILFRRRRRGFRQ
Procedure: as §1, §2, §3

[6] = molecular target: T2, α2b adrenoreceptor; assay: Competition binding, [3H]-UK14304, α2b CHO cell membranes; conditions: for inhibition of [3H]-UK14304 binding, α2b (in words): CHO cell membranes
Procedure: as §1
(§5) Competition Binding Assays
(§6) Competition binding assays for the α2 adrenoreceptors were performed using 20 μg membrane protein per well in binding buffer (75 mM Tris-HCl pH 7.4, 12.5 mM MgCl2, […] EDTA, 0.2% bovine serum albumin). […] Binding was terminated by rapid filtration through GF/C unifilter plates, presoaked with 0.3% polyethylenimine, with five washes with 0.5 ml cold 50 mM Tris-HCl ph 7.4, using a Packard Filtermate Harvester. After drying, bound radioactivity was determined by liquid scintillation counting (Packard TopCount) with Microscint 20, 50 μl/well. Binding data were analyzed using GraphPad Prism.
as §3

[7] = molecular target: T3, α1b adrenoreceptor; assay: Competition binding, [3H]-prazosin, α1b CHO cell membranes; conditions: for inhibition of 3H-prazosin binding, α1b (in words): CHO cell membranes
Procedure: as §1, §5, §6, §3

[8] = molecular target: T4, α2c adrenoreceptor; assay: Competition binding, [3H]-UK14304, α2c CHO cell membranes; conditions: for inhibition of [3H]-UK14304 binding, α2c (in words): CHO cell membranes
Procedure: as §1, §5, §6, §3

[9] = molecular target: T1, α1a adrenoreceptor; assay: Cellular calcium flux (FLIPR), α1a expressing CHO cells; format: cell-based; conditions: α1a expressing CHO cells
Procedure: as §1, §4, §3

[10] = oral, approximately 24 mg of PE, healthy volunteers; cited from earlier work
[11] = cited from earlier work
[12] = listed as phenylephrine sulfate
[13] = at 100 μM (highest concentration evaluated)

Row | Molecule | half-life (t1/2) / elimination half-life [1] [h] | inhibition of 3H-prazosin binding, α1a (in words) [2] | stimulation of [35S]-GTPγS binding, α2b (in words) [3] | increase in intracellular calcium, α1b calcium assay (in words) [4] | stimulation of [35S]-GTPγS binding, α2c (in words) [5] | inhibition of [3H]-UK14304 binding, α2b (in words) [6] | inhibition of 3H-prazosin binding, α1b (in words) [7] | inhibition of [3H]-UK14304 binding, α2c (in words) [8] | increase in intracellular calcium, α1a calcium assay (in words) [9] | also measured
1 | Clc1ccc2c(c1)CCc1cccnc1C2=C1CCNCC1 [desloratadine] | 15 to 19 |  |  |  |  |  |  |  |  | 
2 | CNC[C@H](O)c1cccc(O)c1 [PE, (R)-(−)-phenylephrine, reference compound] |  | inhibits binding | stimulates [^35S]-GTPγS binding | increases intracellular calcium | stimulates [^35S]-GTPγS binding | inhibits [^3H]-UK14304 binding | inhibits binding | inhibits [^3H]-UK14304 binding | increases intracellular calcium | 
3 | (R)-PE sulfate |  | No appreciable binding | No activity | minimal activity; also recorded: A very low level of activity | No activity | no appreciable binding | No appreciable binding | but not; also recorded: no appreciable binding | no and A very low level of activity | metabolite excreted in the urine [10]: 47 % of dose; binding / affinity, α1a receptor (in words) ([2]; concentrations up to 100 μM): no affinity; activity in α2b [35S]-GTPγS assay (in words) ([3]; highest concentration, 100 μM): no activity; increase in intracellular calcium, α1b calcium assay (in words) [4, 12]: induces minimal intracellular calcium increases; activity in α2c [35S]-GTPγS assay (in words) ([5]; highest concentration, 100 μM): no activity; Ki ([6]; [3H]-UK14304, read-out: Ki, a2b Binding (class symbol)): > 100 µM; binding / affinity, α2b receptor (in words) [6, 13]: very minimal binding; also recorded: no affinity; Ki ([7]; [3H]-prazosin, read-out: Ki, a1b Binding (class symbol)): > 100 µM; binding / affinity, α1b receptor (in words) ([7]; concentrations up to 100 μM): no affinity; Ki ([8]; [3H]-UK14304, read-out: Ki, a2c Binding (class symbol)): > 100 µM; binding / affinity, α2c receptor (in words) [8, 13]: very minimal binding; also recorded: no affinity; increase in intracellular calcium, α1a calcium assay (in words) [9, 12]: induces minimal intracellular calcium increases
4 | CN1CCC(=C2c3ccccc3CCc3cccnc32)CC1 [Azatadine] | 9 to 12 |  |  |  |  |  |  |  |  | 
5 | C[C@@H]1CN([C@H]2CC[C@](C#N)(c3ccc(F)cc3)CC2)CC[C@]1(C(=O)O)c1ccccc1 [Levocabastine] |  |  |  |  |  |  |  |  |  | duration of action ([11]; in vivo): 16 to 24 h
6 | CCOC(=O)N1CCC(=C2c3ccc(Cl)cc3CCc3cccnc32)CC1 [loratadine] |  |  |  |  |  |  |  |  |  | time to begin to elicit antihistaminic effect ([11]; exemplary conventional formulation): 1 to 3 h
